The text below walks through data of paper PMC9042801 (RSC Advances, 2021).

Structures are written as SMILES.

One data set in a line: in vitro. The conditions noted are these: dog.
Data set [1] deals with influenza virus A/Puerto Rico/8/34 (H1N1). The conditions noted are these: for SI (CC50/IC50): influenza virus A/Puerto Rico/8/34 (H1N1), MDCK cells.
Data set [2] deals with bovine diarrhea virus (BDV) (strain VC-1). Description: Antiviral activity against BDV on CCV cells. The format is cell-based.
The test system of data set [3] is vaccine virus (VV, strain Copenhagen). The data set is described as follows: organism not typed. The format is cell-based.
Data set [4] concerns herpes simplex virus type 1 (HSV-1, strain VR-3). Description: Antiviral activity against HSV-1 on Vero cells. The format is cell-based. As to conditions: HSV-1, Vero cells, moi 0.01, 3 days.
For the next data set, the system named is MDCK cell line. The conditions noted are these: MTT, 72 h.
The mark [5] stands for this setting: CC50, MDCK cell line, MTT, 72 h.

With `CSc1ccc(-c2c(C(F)(F)F)n(C)n(-c3ccccc3)c2=O)cc1` [Compound 3g], the CC50 in the data set “in vitro” (setting [5]) stood at 263 ± 19 µM. Also, in data set [1], the half-maximal inhibitory concentration (IC50) (in general, the point on the concentration scale where inhibition reaches its midpoint) is above 91 µM.

Take `Cn1c(C(F)(F)F)c(I)c(=O)n1-c1ccccc1` [Compound 5a, 4-iodo-5-trifluoromethyl-antipyrine]: the IC50 in data set [2] (72 h) is 46.9 ± 2 µM; in data set [3] (Vero, 72 h) it was 103 ± 10 µM; in data set [4] it was “Inactive”. For the same compound, the “SIVDC (selectivity index)” value in data set [2] (BDV, CCV cells) is on record as 6.4. In addition, the “activity against bovine diarrhea virus (strain VC-1), in words” value in data set [2] (CCV cells) is recorded as “weak activity”. In “in vitro” (setting [5]), this compound returned a CC50 above 815 µM. The “SIBOB (selectivity index)” value in data set [3] (VV, Vero cells) was determined as 2.9. The “activity against the vaccine virus (strain Copenhagen), in words” value in data set [3] (Vero cells) is listed as “weak activity”.

`Cn1c(C(F)(F)C(F)(F)F)c(I)c(=O)n1-c1ccccc1` [Compound 5b] yielded a CC50 in the data set “in vitro” (setting [5]) of 378 ± 26 µM.

Consider `Cn1c(C(F)(F)F)c(C#Cc2ccccc2)c(=O)n1-c1ccccc1` [Compound 6a, 1-methyl-2-phenyl-4-(phenylethynyl)-5-(trifluoromethyl)-1,2-dihydro-3H-pyrazol-3-one], for which the CC50 in the data set with MDCK cell line was above 877 µM; in “in vitro” (setting [5]), above 815 µM. The “SI (CC50/IC50)” value in data set [1] amounted to 15.

For the compound `NC(=O)c1ncn([C@@H]2O[C@H](CO)[C@@H](O)[C@H]2O)n1` [Ribavirin, reference compound], the CC50 in the data set “in vitro” was above 2130 µM. For the same compound, the “SI (CC50/IC50)” value in data set [1] was found to be 59.
